Experimental data: patent US20130289119A1, “FORMULATION COMPRISING ARGININE, USE AND PREPARATION THEREOF” (OSPEDALE SAN RAFFAELE S.R.L., priority 2010, published 2013)

Experimental: In the present invention, the bio-availability and the vascular and metabolic effect of an oral administration of L-arginine (6.6 g) contained in the formulation of the invention (6 biscuits) compared either to the same food preparation (6 biscuits) prepared without the addition of L-arginine or to 6.6 g of powdered L-arginine were evaluated in healthy subjects.
Seven healthy subjects (2M/5F) participated in the study.
A complete medical history and a physical examination including height, weight, waist and hip circumferences and blood pressure measurements were taken for each subject. It was asked to all subjects to follow a 2000 kcal/die standard diet, according to LARN (Livelli di Assunzione Giornalieri Raccomandati di Nutrienti per la Popolazione Italiana) recommendations and to complete a 3 day food diary (two working days and one holiday day) before every test to obtain accurate information on short-term food intake. Food diaries were elaborated with a dedicated software to decode foods (Nutritionist Pro 2.5, Axial System, Stafford, Tex.), modified introducing the L-arginine contents, obtained from INRAN and USDA database, in more than 700 different foods items.
The portion of 6 biscuits further contained a total amount of 21.9 g of carbohydrates (17.9 g of starch and 4.0 g of sugars), 3.6 g of proteins, 7.5 g of fats and 4.3 g of fibers. A fixed amount of 250 ml of natural water was taken with the food preparation. […] A fixed amount of 250 ml of natural water was taken with the food preparation. • The third test consisted in the oral administration of 6.6 g of powdered L-arginine diluted in 250 ml of natural water. The Study Design is represented in FIG. 2. After an overnight fast, a 20-gauge plastic cannula (Abbocath T; Abbocath, Ireland LTD, Sling, Ireland) was inserted in a large antecubital vein for intermittent sampling. Samples for the evaluation of glucose, insulin, NOx and L-arginine levels were evaluated at 0, 30, 60, 90, 120, 180 and 240 minutes. c-GMP levels were evaluated at 0, 60, 120, 180 and 240 minutes.
Basal blood pressure was taken in supine position after 10 min of rest, and the mean of two measurements was used as the value, after that blood pressure was also taken at time 0, 120, 180 and 240 minutes. Forearm blood flow (FBF) was measured by strain-gauge venous occlusion plethysmography. Before any measurement was taken, the hand circulation was occluded using a wrist cuff inflated to 240 mmHg. Baseline blood flow was calculated as the mean of at least three values. Reactive hyperaemia (endothelium-dependent vasodilation) was measured after the release of a 5-min arterial occlusion, produced by inflating a standard sphygmomanometer cuff on the upper arm to 100 mmHg above systolic blood pressure (SBP). These measurement were performed at basal and every 60 min until the end of the study. Peripheral resistance was calculated as a ratio between mean blood pressure and the FBF.
Glucose levels were measured with spectrophotometric methods adapted to Cobas MIRA using commercial kits (ABX, Montpellier, France). Insulin and proinsulin levels were assayed with ELISA kits (Insulin ELISA, Mercodia, Uppsala, Sweden and Proinsulin ELISA, DRG, Marburg, Germany). NOx levels were evaluated through the measurement of metabolic end products, i.e., nitrite and nitrate, using enzymatic catalysis coupled with Griess reaction. c-GMP levels were measured with radioimmunoassay kits (NEN Life Science Products, Boston, Mass., USA). L-Arginine were extracted from plasma samples by cation-exchange Strata SCX 100-mg columns (Phenomenex) and assayed by high-performance liquid chromatography.

[1] = healthy subjects, oral 6.6 g L-arginine

In the case of `N=C(N)NCCC[C@H](N)C(=O)O` [powdered L-Arginine, L-arginine], the “Incremental area under the curve for L-Arginine (ΔAUC L-Arginine)” value (both, human, in vivo, po) is reported as 15050 ± 1353 µmol/L, the “Percentage incremental increase of post-ischemic blood flow vs food preparation not containing L-Arginine” value (healthy subjects, forearm plethysmography) is reported as “significantly (p<0.02) increased” and the “cGMP plasma levels vs food preparation not containing L-Arginine” value [1] is reported as “significantly (p<0.03) higher”. The “nitric oxide (NOx) plasma levels vs food preparation not containing L-Arginine” value [1] was “significantly (p<0.03) higher”, the “ΔAUC NOx vs food product not containing L-Arginine” value [1] was “significantly (p<0.04) increased” and the “ΔAUC cGMP vs food product not containing L-Arginine” value [1] was “significantly (p<0.04) increased”.
